Source: patent publication US20030049305A1, “Preserved feedstuffs and process for their production” (priority 2001, published 2003)

Experiments:
E. coli O0157:H7 EDL 933 = test: Bacterial count in whey powder paste inoculated with E. coli O157:H7, with LAE added; type: cell-based, Escherichia coli O157:H7; conditions: whey powder paste pH 6.1-6.2; for bacterial count after 48 h as % of the value on addition: 800 mg of LAE/kg, 48 h storage at room temperature; for change of bacterial count versus control sample without LAE: LAE 200, 400 and 800 mg/kg, after 24 h, continued with longer storage at room temperature
Description: (§1) The invention is described in more detail by the examples below. In these examples partially desugared whey powder is used, a constituent of many feedstuffs which was set to the pH range of 6.1-6.2 which is favorable for the growth of many bacteria. The whey powder was made into a paste using aqueous buffer solution, so that together with the bacterial suspension in physiological saline a ratio of whey powder to water of approximately 2:1 resulted. LAE was added to the samples at concentrations of 200, 400 and 800 mg/kg, while a control sample received no addition. The bacterial count was determined in a conventional manner in the resultant pastes immediately after their preparation, after 24 h and after 48 h of storage at room temperature.
Effect on Escherichia coli O157:H7 (approximately 6×10^5/g)
A paste of whey powder prepared in the manner described was inoculated with approximately 6×10^5/g of E. coli O0157:H7 EDL 933. […] At an addition of 800 mg of LAE/kg, the bacterial count after 48 h was less than 10% of the value on addition.
Effect on Escherichia coli O157:H7 (approximately 3×1 0^3/g)
A paste of whey powder prepared in the manner described was inoculated with approximately 3×10^3/g of E. coli O0157:H7 EDL 933. […] At an addition of 800 mg of LAE/kg, the bacterial count after 48 h was less than 10% of the value on addition.

[1] = tested on: L. monocytogenes ATCC 13311; test: Bacterial count in whey powder paste inoculated with Listeria monocytogenes, with LAE added; type: cell-based; conditions: whey powder paste pH 6.1-6.2; for bacterial count after 48 h as % of the value on addition: 800 mg of LAE/kg, 48 h storage at room temperature; for change of bacterial count versus control sample without LAE: LAE 200, 400 and 800 mg/kg, after 24 h, continued with longer storage at room temperature
Description: as §1
Effect on Listeria monocytogenes (approximately 5×10^5/g)
A paste of whey powder prepared in the manner described was inoculated with approximately 5×10^5/g L. monocytogenes ATCC 13311. […] At an addition of 800 mg of LAE/kg, the bacterial count after 48 h was approximately 15% of the value on addition.
Effect on Listeria monocytogenes (approximately 2×10^3/g)
A paste of whey powder prepared in the manner described was inoculated with approximately 2×10^3/g L. monocytogenes ATCC 13311. […] At an addition of 800 mg of LAE/kg, the bacterial count after 48 h was less than 20% of the value on addition.

[2] = tested on: S. typhimurium NCTC 10527; test: Bacterial count in whey powder paste inoculated with Salmonella typhimurium, with LAE added; type: cell-based; conditions: inoculum approximately 3×10^4/g, whey powder paste pH 6.1-6.2
Description: as §1
Effect on Salmonella typhimurium (approximately 3×10^4/g)
A paste of whey powder prepared in the manner described was inoculated with approximately 3×10^4/g S. typhimurium NCTC 10527.

[3] = inoculum approximately 3×10^3/g
[4] = inoculum approximately 6×10^5/g
[5] = inoculum approximately 2×10^3/g
[6] = inoculum approximately 5×10^5/g

## CCCCCCCCCCCC(=O)N[C@@H](CCCNC(=N)N)C(=O)OCC [LAE, lauroylarginine ethyl ester]
E. coli O0157:H7 EDL 933; [3]
  bacterial count after 48 h as % of the value on addition: less than 10%
  change of bacterial count versus control sample without LAE: much more marked concentration-dependent decrease
E. coli O0157:H7 EDL 933; [4]
  bacterial count after 48 h as % of the value on addition: less than 10%
  change of bacterial count versus control sample without LAE: marked concentration-dependent decrease
[1]; [5]
  bacterial count after 48 h as % of the value on addition: less than 20%
  change of bacterial count versus control sample without LAE: more marked concentration-dependent decrease
[1]; [6]
  bacterial count after 48 h as % of the value on addition: approximately 15%
  change of bacterial count versus control sample without LAE: more marked concentration-dependent decrease
[2]; 800 mg of LAE/kg, 48 h storage at room temperature
  detectability of test bacteria after 48 h: no longer detectable
[2]; LAE 200, 400 and 800 mg/kg, after 24 h, continued with longer storage at room temperature
  change of bacterial count versus control sample without LAE: much more marked concentration-dependent decrease
